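Interpolation was linear, between the two tested concentrations surrounding the appropriate level; five concentrations were tested over 48 hours in 96-well plates. GI50 is the concentration that inhibits growth by half.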 The source made the active and inactive calls. Cut-off read from the data, not from the text of the source: active = GI50 up to about 1.1 µM and inactive = higher.
Key:
Experiment in all cases: growth of human tumour cells (NCI), 48 h
DU-145 = tested on: DU-145
IGROV-1 = tested on: IGROV-1
RXF 393 = tested on: RXF 393
K562 = tested on: K562
MDA-MB-231 = tested on: MDA-MB-231
HOP-92 = tested on: HOP-92
OVCAR-3 = tested on: OVCAR-3
PC-3 = tested on: PC-3
MDA-N = tested on: MDA-N
U-251 = tested on: U-251
KM12 = tested on: KM12
SR = tested on: SR
HOP-62 = tested on: HOP-62
SK-MEL-5 = tested on: SK-MEL-5
SNB-19 = tested on: SNB-19
COLO 205 = tested on: COLO 205
A498 = tested on: A498
NCI-H226 = tested on: NCI-H226
SF-295 = tested on: SF-295
CAKI-1 = tested on: CAKI-1

SMILES | GI50 (DU-145) | GI50 (IGROV-1) | GI50 (RXF 393) | GI50 (K562) | GI50 (MDA-MB-231) | GI50 (HOP-92) | GI50 (OVCAR-3) | GI50 (PC-3) | GI50 (MDA-N) | GI50 (U-251) | GI50 (KM12) | GI50 (SR) | GI50 (HOP-62) | GI50 (SK-MEL-5) | GI50 (SNB-19) | GI50 (COLO 205) | GI50 (A498) | GI50 (NCI-H226) | GI50 (SF-295) | GI50 (CAKI-1)
O=C(O)c1ccc(/C=N/N=C2c3ccccc3-c3ccccc32)cc1 | > 100 µM (inactive) | 54.8 µM (inactive) | 89.9 µM (inactive) | 55.8 µM (inactive) | > 100 µM (inactive) | 40.6 µM (inactive) | 19.6 µM (inactive) | 35 µM (inactive) | 50.9 µM (inactive) | 37.4 µM (inactive) | 35.2 µM (inactive) | 30.4 µM (inactive) | 54.7 µM (inactive) | 26.5 µM (inactive) | 48 µM (inactive) | 57.8 µM (inactive) | > 100 µM (inactive) | 22.4 µM (inactive) | 12.7 µM (inactive) | 38.6 µM (inactive)
CN(C)CCNc1ccccn1 | > 100 µM (inactive) | > 100 µM (inactive) | > 100 µM (inactive) | > 100 µM (inactive) | > 100 µM (inactive) | > 100 µM (inactive) | > 100 µM (inactive) | > 100 µM (inactive) | > 100 µM (inactive) | > 100 µM (inactive) | > 100 µM (inactive) | > 100 µM (inactive) | > 100 µM (inactive) | > 100 µM (inactive) | > 100 µM (inactive) |  | > 100 µM (inactive) | > 100 µM (inactive) | > 100 µM (inactive) | > 100 µM (inactive)
C=C(C)[C@@H]1CC[C@]2(C(=O)O)CC[C@]3(C)[C@H](CC[C@@H]4[C@@]5(C)CC[C@H](O)C(C)(C)[C@@H]5CC[C@]43C)[C@@H]12 [BETULINIC ACID] | 9.71 µM (inactive) | 11.9 µM (inactive) | 2.64 µM (inactive) | 5.13 µM (inactive) | 3.91 µM (inactive) | 3.27 µM (inactive) | 2.61 µM (inactive) | 7.48 µM (inactive) | 16.7 µM (inactive) | 5.53 µM (inactive) | 5.93 µM (inactive) | 5.53 µM (inactive) | 8.36 µM (inactive) | 4.19 µM (inactive) | 13.7 µM (inactive) | 4.63 µM (inactive) | 6.08 µM (inactive) | 13.2 µM (inactive) | 7.71 µM (inactive) | 11.6 µM (inactive)
Clc1cccc(/C=N/C23CC4CC(CC(C4)C2)C3)c1Cl | > 10 µM (inactive) | > 10 µM (inactive) | > 10 µM (inactive) | > 10 µM (inactive) | > 10 µM (inactive) | > 10 µM (inactive) | > 10 µM (inactive) | > 10 µM (inactive) | > 10 µM (inactive) | > 10 µM (inactive) | > 10 µM (inactive) | 0.637 µM (active) | > 10 µM (inactive) | > 10 µM (inactive) | > 10 µM (inactive) | > 10 µM (inactive) | > 10 µM (inactive) | > 10 µM (inactive) | > 10 µM (inactive) | > 10 µM (inactive)
COC(=O)c1ccc(NCc2cc(O)c3ccccc3c2O)cc1 | 15.8 µM (inactive) | 11.4 µM (inactive) | 16.3 µM (inactive) | 2.59 µM (inactive) | 2.17 µM (inactive) | 2.55 µM (inactive) | 14.9 µM (inactive) | 17.2 µM (inactive) | 2.15 µM (inactive) | 16.7 µM (inactive) | 14.8 µM (inactive) | 4.54 µM (inactive) | 14.4 µM (inactive) | 1.51 µM (inactive) | 22.2 µM (inactive) | 5.06 µM (inactive) | 19.8 µM (inactive) | 16.4 µM (inactive) | 7.5 µM (inactive) | 6.17 µM (inactive)
Brc1ccc2c(-c3nc(-c4c[nH]c5ccc(Br)cc45)cs3)c[nH]c2c1 | 5.77 µM (inactive) | 2.99 µM (inactive) | 4.45 µM (inactive) | 3.44 µM (inactive) | 3.69 µM (inactive) | 3.44 µM (inactive) | 10.2 µM (inactive) | 6 µM (inactive) | 4.45 µM (inactive) | 4.43 µM (inactive) | 2.62 µM (inactive) | 3.15 µM (inactive) | 11.7 µM (inactive) | 4.51 µM (inactive) | 4.25 µM (inactive) | 2.54 µM (inactive) | 2.41 µM (inactive) | 1.94 µM (inactive) | 3.92 µM (inactive) | 4.03 µM (inactive)
Clc1cc(OCc2nn3c(Cc4ccccc4)nnc3s2)c(Cl)cc1OCc1nn2c(Cc3ccccc3)nnc2s1 | 47.1 µM (inactive) | 36 µM (inactive) | 17 µM (inactive) | 4.93 µM (inactive) | 26.4 µM (inactive) | 18.8 µM (inactive) | 33.3 µM (inactive) | 78.3 µM (inactive) | 79.4 µM (inactive) | 31.6 µM (inactive) | > 100 µM (inactive) | 0.541 µM (active) | 33.3 µM (inactive) | 41.8 µM (inactive) | 27.9 µM (inactive) | > 100 µM (inactive) | 30.5 µM (inactive) | > 100 µM (inactive) | 31.3 µM (inactive) | > 100 µM (inactive)
O=S1(=O)OCCOS(=O)(=O)C1Cc1cccc2ccccc12 | 12 µM (inactive) | 13.9 µM (inactive) | 3.37 µM (inactive) | 15.6 µM (inactive) | 23 µM (inactive) | 17.9 µM (inactive) |  | 33.2 µM (inactive) | 21.2 µM (inactive) | 18.2 µM (inactive) |  | 25.2 µM (inactive) | 23.9 µM (inactive) | 14.4 µM (inactive) | 25 µM (inactive) | 13.9 µM (inactive) | 14.1 µM (inactive) | 7.83 µM (inactive) | 32.3 µM (inactive) | 32.6 µM (inactive)
COc1cccc(C2c3cc4c(cc3OC(N3CCCC3)C2C)OCO4)c1O (stereo not drawn) | 4.41 µM (inactive) | 7.14 µM (inactive) | 3.58 µM (inactive) | 3.74 µM (inactive) | 8.02 µM (inactive) | 7.82 µM (inactive) | 2.77 µM (inactive) | 4.49 µM (inactive) | 1.64 µM (inactive) | 3.49 µM (inactive) | 3.03 µM (inactive) | 4.38 µM (inactive) | 7.52 µM (inactive) | 3.38 µM (inactive) | 7.6 µM (inactive) | 3.37 µM (inactive) | 4.89 µM (inactive) | 4.53 µM (inactive) | 3.51 µM (inactive) | 6.32 µM (inactive)
O=C(O)C#Cc1ccc([N+](=O)[O-])cc1 | > 100 µM (inactive) | > 100 µM (inactive) | > 100 µM (inactive) | > 100 µM (inactive) | > 100 µM (inactive) | > 100 µM (inactive) | > 100 µM (inactive) | > 100 µM (inactive) | > 100 µM (inactive) | > 100 µM (inactive) | > 100 µM (inactive) | > 100 µM (inactive) | > 100 µM (inactive) | > 100 µM (inactive) | > 100 µM (inactive) | > 100 µM (inactive) | > 100 µM (inactive) | > 100 µM (inactive) | > 100 µM (inactive) | > 100 µM (inactive)
Cc1[nH]c(-c2ccccc2)c2nc(N(C)C)oc(=O)c12 | > 100 µM (inactive) | > 100 µM (inactive) | > 100 µM (inactive) | > 100 µM (inactive) | > 100 µM (inactive) | > 100 µM (inactive) |  | > 100 µM (inactive) | > 100 µM (inactive) | > 100 µM (inactive) | > 100 µM (inactive) | > 100 µM (inactive) | > 100 µM (inactive) | > 100 µM (inactive) | > 100 µM (inactive) | > 100 µM (inactive) | > 100 µM (inactive) | > 100 µM (inactive) | > 100 µM (inactive) | 0.212 µM (active)
COC(=O)c1cnn2c1n[n+]([O-])c1ccccc12 | > 100 µM (inactive) | > 100 µM (inactive) | > 100 µM (inactive) | > 100 µM (inactive) | > 100 µM (inactive) | > 100 µM (inactive) | 25.9 µM (inactive) | > 100 µM (inactive) | > 100 µM (inactive) | > 100 µM (inactive) | > 100 µM (inactive) | > 100 µM (inactive) | > 100 µM (inactive) | 26.9 µM (inactive) |  | 85.5 µM (inactive) | 30.3 µM (inactive) | > 100 µM (inactive) | > 100 µM (inactive) | > 100 µM (inactive)
COC(=O)[C@H]1ON2O[C@H](OC3CCCC[C@@H]3c3ccccc3)C[C@@H]3CC[C@H]1[C@@]32C (stereo partly drawn) | > 100 µM (inactive) | > 100 µM (inactive) | 45.9 µM (inactive) | > 100 µM (inactive) | > 100 µM (inactive) | 81.7 µM (inactive) |  | 47.6 µM (inactive) | > 100 µM (inactive) | 77.6 µM (inactive) | 95.9 µM (inactive) | 72.9 µM (inactive) | > 100 µM (inactive) | 56.4 µM (inactive) | > 100 µM (inactive) | 91.4 µM (inactive) | > 100 µM (inactive) | 49.4 µM (inactive) | > 100 µM (inactive) | > 100 µM (inactive)
CC(=O)OCC1OC(SC2=NC(=O)/C(=C/c3ccccc3)S2)C(OC(C)=O)C(OC(C)=O)C1OC(C)=O (stereo not drawn) | 95.1 µM (inactive) | 35.8 µM (inactive) | 26 µM (inactive) |  | 23.3 µM (inactive) | 15.7 µM (inactive) | 19.7 µM (inactive) | 40.1 µM (inactive) | 26.8 µM (inactive) | 30.9 µM (inactive) | 36.9 µM (inactive) | 10.9 µM (inactive) | 38.5 µM (inactive) | 18.8 µM (inactive) | 35.1 µM (inactive) | 45.6 µM (inactive) | 29 µM (inactive) | 33.8 µM (inactive) | 62.8 µM (inactive) | 3.78 µM (inactive)
